Measurements from patent US20150010651A1, “Compositions and methods for the treatment of wounds” (priority 2009, published 2015).
Values joined by “and” are separate entries in the source; they are usually repeats but may differ in a detail not shown here. Equal entries are not always repeated. “Also recorded” adds a separate entry of the source.

Legend:
[1] = system: diabetic ulcer (non-healing wound); assay: Case studies: powdered wound composition applied topically to infected non-healing wounds / diabetic ulcers of patients; assay type: in vivo, human
Excerpt: Thereafter, the wound compositions may be applied to the wound at least once a week until such time as the wound is satisfactorily healed. In one embodiment, a wound composition is applied once a week (after the initial daily application) for a period of at least seven weeks. It is understood that prior to each application, the wound may be rinsed with a sterile solution, such as saline, and allowed to dry. Thereafter, a wound composition may be applied and the wound wrapped in a suitable dressing.
A treatment plan was established for the patient. Under the treatment plan, the patient received: 1) Insulin 70/30 (Novoline) 50 IU morning, 25 IU night; and 2) intravenueously, Co-Amoxiclav 1.2 g+Gentamicin 80 mg+Metronidazole 400 mg in 100 ml N Saline/30 min (every 8 hours). After the injection of the intravenous antibiotics, the patient began taking oral antibiotics: 1) Co-Amoxiclav 625 mg (2 tablets) (twice daily); 2) Ciprofloxacin 500 mg once daily for 2 weeks; and 3) Ibuprofen 600 mg for 5 days (every 8 hours). Thereafter, the wound was cleaned with saline solution. A wound composition comprising a mixture of 300 mg powdered phenyloin (Dilantin®) and 500 mg of powdered Vitamin C was administered over the wound and the wound was dressed. The patient was advised to come back on a daily basis for dressing of the wound and reapplication of the wound composition.
The patient returned for 9 consecutive visits over the next nine days. Thereafter, the patient began weekly visits. With each visit, the wound was cleaned with saline solution and the powdered wound composition was applied topically to the wound, and redressed.
A treatment plan was established for the patient. Under the treatment plan, the patient received: 1) Insulin 70/30 (Novoline) 40 IU morning, 20IU night; and 2) intravenueously, Co-Amoxiclav 1.2 g+Gentamicin 80 mg+Metronidazole 400 mg in 100 ml N Saline/30 min. every 8 hours. After the injection of the intravenous antibiotics, the patient began taking oral antibiotics: 1) Co-Amoxiclav 625 mg (2 tablets) twice daily 2) Ciprofloxacin 500 mg once daily for 2 weeks; and 3) Ibuprofen 600 mg every 8 hours.; and (4) Co-diovan tablets (valsartan and hydrochlorothiazide) 80 mg/12.5 mg daily. Thereafter, the wound was cleaned with saline solution. A wound composition comprising 300 mg powdered phenyloin (Dilantin®) was administered over the wound and the wound was dressed. The patient was advised to come back on a daily basis for dressing of the wound and reapplication of the wound composition.
The patient returned for 9 consecutive visits over the next nine days. Thereafter, the patient began weekly visits. With each visit, the wound was cleaned with saline solution and the powdered wound composition was applied topically to the wound, and redressed. […] No further treatment was prescribed to the patient.

[2] = system: diabetic ulcers; conditions: patients with diabetic ulcers; control group 45 days; cited from earlier work
[3] = one patient per Example, topical, weekly application, week 8

## O=C1NC(=O)C(c2ccccc2)(c2ccccc2)N1 [phenyloin, 5.5-diphenyl-2,4-imidazolidinedione]
[1]; Example 16 patient, topical, weekly application, week 13
  portion of the wound healed: approximately 60%
[1]; Example 16 patient, topical, weekly application, weeks 3-5
  appearance of the wound: continued to appear generally healthy
[1]; one patient per Example, Dilantin alone
  recurrence of the wound after healing: the wound returned in substantially the same location; also recorded: the wound returned in approximately the same location
[1]; one patient per Example, Dilantin alone, topical
  time the wound took to heal completely: approximately 20 weeks and ~27 weeks and ~22 weeks and approximately 25 weeks
[1]; one patient per Example, after treatment course
  amputation outcome: need to amputate the right leg below the knee; also recorded: need to amputate the left leg below the knee
[1]; one patient per Example, topical, daily visits for 9 days then weekly, week 1
  new skin formation (wound healing by secondary intention): signs of new skin formation
[1]; [3]
  granulation tissue formed: approximately 20%
  portion of the wound healed: approximately 35%; also recorded: approximately 25%
[1]; one patient per Example, topical, weekly application, week 9
  portion of the wound healed: approximately 40%
[1]; one patient per Example, topical, weekly application, week 10
  portion of the wound healed: approximately 60%
[1]; one patient per Example, topical, weekly application, weeks 2-4
  appearance of the wound: continued to appear generally healthy
[1]; one patient per Example, topical, weekly application, weeks 5-7
  healing of the wound as noted: beginning to heal very well, but was very slow healing
[2]
  mean healing time: 21 days
